Measured values from publication PMC6440985, “Heterogeneous drug tissue binding in brain regions of rats, Alzheimer’s patients and controls: impact on translational drug development” (Scientific Reports, 2019).
Read-outs that look alike come from different tables or passages of the source.

Legend:
[1] = rat, brain homogenate
[2] = Regional brain tissue binding by equilibrium dialysis, human post-mortem brain homogenate (control and AD donors); type: in vitro ADME; conditions: for fu,brain,ROI in CRB of AD patients compared to rat CRB: AD patients versus healthy Sprague-Dawley rats; for fraction unbound at 6 h, 1 µM: human, post-mortem brain tissue homogenate
[3] = in vitro; conditions: Sprague-Dawley, rat, brain homogenate
[4] = on average; according to prior information; cited from earlier work
[5] = parameters: method as in Loryan et al.[23]; conditions: Rat, ref Loryan et al.[23], cited from earlier work; for fu,brain,ROI Mean: biological replicates; for fu,brain,ROI Median: technical replicates
[6] = AD donors, BG, pH 7.4, AD donors, BG, biological replicates, 1 µM, 6 h, 37 °C, read-out: fu,brain,ROI Mean
[7] = AD donors, BG, pH 7.4, AD donors, BG, technical replicates, 1 µM, 6 h, 37 °C, read-out: fu,brain,ROI Median
[8] = AD donors, CRB, pH 7.4, AD donors, CRB, biological replicates, 1 µM, 6 h, 37 °C, read-out: fu,brain,ROI Mean
[9] = AD donors, CRB, pH 7.4, AD donors, CRB, technical replicates, 1 µM, 6 h, 37 °C, read-out: fu,brain,ROI Median
[10] = AD donors, FrCx, pH 7.4, AD donors, FrCx, biological replicates, 1 µM, 6 h, 37 °C, read-out: fu,brain,ROI Mean
[11] = AD donors, FrCx, pH 7.4, AD donors, FrCx, technical replicates, 1 µM, 6 h, 37 °C, read-out: fu,brain,ROI Median
[12] = AD donors, PrCx, pH 7.4, AD donors, PrCx, technical replicates, 1 µM, 6 h, 37 °C, read-out: fu,brain,ROI Median
[13] = control donors, BG, pH 7.4, Control donors, BG, biological replicates, 1 µM, 6 h, 37 °C, read-out: fu,brain,ROI Mean
[14] = control donors, BG, pH 7.4, Control donors, BG, technical replicates, 1 µM, 6 h, 37 °C, read-out: fu,brain,ROI Median
[15] = control donors, CRB, pH 7.4, Control donors, CRB, biological replicates, 1 µM, 6 h, 37 °C, read-out: fu,brain,ROI Mean
[16] = control donors, CRB, pH 7.4, Control donors, CRB, technical replicates, 1 µM, 6 h, 37 °C, read-out: fu,brain,ROI Median
[17] = control donors, FrCx, pH 7.4, Control donors, FrCx, biological replicates, 1 µM, 6 h, 37 °C, read-out: fu,brain,ROI Mean
[18] = control donors, FrCx, pH 7.4, Control donors, FrCx, technical replicates, 1 µM, 6 h, 37 °C, read-out: fu,brain,ROI Median
[19] = control donors, PrCx, pH 7.4, Control donors, PrCx, biological replicates, 1 µM, 6 h, 37 °C, read-out: fu,brain,ROI Mean
[20] = control donors, PrCx, pH 7.4, Control donors, PrCx, technical replicates, 1 µM, 6 h, 37 °C, read-out: fu,brain,ROI Median
[21] = AD group, within-group comparison
[22] = AD donors, PrCx, pH 7.4, AD donors, PrCx, biological replicates, 1 µM, 6 h, 37 °C, read-out: fu,brain,ROI Mean

| SMILES | between region comparison of fu,brain,ROI [1] | fu,brain,ROI in CRB of AD patients compared to rat CRB [2] | fraction unbound at 6 h, 1 µM [2, 6] | fraction unbound at 6 h, 1 µM [2, 7] | fraction unbound at 6 h, 1 µM [2, 8] | fraction unbound at 6 h, 1 µM [2, 9] | fraction unbound at 6 h, 1 µM [2, 10] | fraction unbound at 6 h, 1 µM [2, 11] | fraction unbound at 6 h, 1 µM [2, 12] | fraction unbound at 6 h, 1 µM [2, 13] | fraction unbound at 6 h, 1 µM [2, 14] | fraction unbound at 6 h, 1 µM [2, 15] | fraction unbound at 6 h, 1 µM [2, 16] | fraction unbound at 6 h, 1 µM [2, 17] | fraction unbound at 6 h, 1 µM [2, 18] | fraction unbound at 6 h, 1 µM [2, 19] | fraction unbound at 6 h, 1 µM [2, 20] | fraction unbound at 6 h, 1 µM ([3]; pH 7.4, fu,brain,ROI Mean) | fraction unbound at 6 h, 1 µM ([3]; pH 7.4, fu,brain,ROI Median) | ratio of fu,brain,ROI in CRB compared to PrCx [2, 21] | further results |
| --- | --- | --- | --- | --- | --- | --- | --- | --- | --- | --- | --- | --- | --- | --- | --- | --- | --- | --- | --- | --- | --- |
| COc1ccc2c(c1)c(CC(=O)O)c(C)n2C(=O)c1ccc(Cl)cc1 [Indomethacin, indomethacin] | no differences in binding | twice as high | 0.089 | 0.089 | 0.149 | 0.116 | 0.103 | 0.095 | 0.08 | 0.073 | 0.071 | 0.113 | 0.109 | 0.088 | 0.088 | 0.079 | 0.083 | 0.068 | 0.065 | – | plasma protein binding exceeding brain tissue binding [4]: 5 fold |
| CC12CC3CC(C)(C1)CC(N)(C3)C2 [Memantine, memantine] | no differences in binding | twice as high | 0.114 | 0.111 | 0.152 | 0.142 | 0.114 | 0.117 | 0.103 | 0.092 | 0.093 | 0.113 | 0.116 | 0.094 | 0.092 | 0.088 | 0.086 | 0.076 | 0.073 | ≥ 1.5 | fold higher fu,brain,ROI in CRB compared to PrCx ([2]; control group, within-group comparison): ≥ 1.3 fold; fraction unbound at 6 h, 1 µM [2, 22]: 0.099 |
| Cc1nc2n(c(=O)c1CCN1CCC(c3noc4cc(F)ccc34)CC1)CCCC2O (stereo not drawn) [Paliperidone, paliperidone] | no differences in binding | twice as high | 0.249 | 0.249 | 0.374 | – | 0.237 | 0.216 | 0.224 | 0.186 | 0.192 | 0.217 | 0.207 | 0.197 | 0.198 | 0.189 | 0.183 | – | – | ≥ 1.5 | fu,brain,ROI Mean ([5]; BG): 0.128; fu,brain,ROI Median ([5]; BG): 0.128; fu,brain,ROI Mean ([5]; CRB): 0.145; fu,brain,ROI Median ([5]; CRB): 0.143; fu,brain,ROI Mean ([5]; FrCx): 0.144; fu,brain,ROI Median ([5]; FrCx): 0.138; fu,brain,ROI Mean ([5]; HIP): 0.157; fu,brain,ROI Median ([5]; HIP): 0.150; fu,brain,ROI Mean ([5]; WB): 0.141; fu,brain,ROI Median ([5]; WB): 0.151; fu,brain,ROI Median ([2]; AD donors, CRB, technical replicates, 1 µM, 6 h, 37 °C): 0.350; ratio of fu,brain,ROI in CRB compared to BG [2, 21]: 1.4; fold lower BTB in CRB compared to frontal and parietal cortices ([2]; AD patients, average): 1.5 fold; ratio of fu,brain,ROI AD versus control ([2]; CRB, between group comparison): 1.6; regional within-group comparison of fu,brain,ROI ([2]; control group, FrCx, PrCx, BG, CRB): uniform binding; fraction unbound at 6 h, 1 µM [2, 22]: 0.232 |
